Earlier results as cited in patent US6506390B2, “Progestogen-anti-progestogen regimens” (Akzo Nobel, priority 1996, dated 2003).

Legend:
[1] = based on practically applied doses; for relative potency in progestogenic activity: levonorgestrel, desogestrel and 3-keto-desogestrel compared with each other
[2] = as an approximation

## C#C[C@]1(O)CC[C@H]2[C@@H]3CCC4=CC(=O)CC[C@@H]4[C@H]3C(=C)C[C@@]21CC [3-keto-desogestrel]
[1]
  relative potency in progestogenic activity: relatively equipotent

## C#CC1(O)CC[C@H]2[C@@H]3CCC4=CC(=O)CC[C@@H]4[C@H]3CC[C@@]21CC (some centres unmarked) [Norgestrel, norgestrel]
[1]; progestogenic activity
  potency relative to levonorgestrel: about one-half

## C#C[C@]1(O)C=C[C@H]2[C@@H]3CCC4=CC(=O)CC[C@@H]4[C@H]3CC[C@@]21CC [Gestodene, gestodene]
[1]; progestogenic activity
  potency relative to levonorgestrel, desogestrel and 3-keto-desogestrel: approximately 1.5 times

## C#C[C@]1(O)CC[C@H]2[C@@H]3CCC4=CCCC[C@@H]4[C@H]3C(=C)C[C@@]21CC [desogestrel, 13-ethyl-11-methylene-18,19-di-nor-17α-pregn-4-en-20-yn-17-ol]
[1]
  relative potency in progestogenic activity: relatively equipotent

## C#C[C@]1(O)CC[C@H]2[C@@H]3CCc4cc(OC)ccc4[C@H]3CC[C@@]21C [mestranol, 17-α-ethinyl estradiol 3-methylether]
[2]
  amount equivalent in estrogenic activity to 1 mg of 17β-estradiol: ~0.030 mg
